Like-named read-outs stand apart in the source and are kept apart here.
How the values were obtained:
[1] = Solubility in DI water and pH 2.0 phosphate buffer; format: physicochemical; conditions: for solubility: thermodynamic from solid
Method: The table below summarizes additional characterization data for the fumaric and maleate KX2-391.MSA salts and compares it to free base, bis-HCl, and MSA salts described above. The results in the table below were obtained using the procedures described above in Examples 5 (XRPD), 6 (DSC), 7 (TGA), and 8 (moisture-sorption).
Solubility experiments were also performed using pH 2.0 phosphate buffer and DI water pH 6.9 and KX2-391.MSA, Form A. Each vial was filled with approximately 50 mg of KX2-391.MSA, Form A and 100 μL aliquots of the corresponding solvent was added until complete dissolution was observed, followed by stirring at room temperature for one and five days. The solids obtained were isolated by filtration, dried under vacuum at room temperature and analyzed by HPLC. The initial HPLC purity of KX2-391.MSA, Form A was 99.4 (% area). The solubility by HPLC of KX2-391.MSA, Form A in phosphate buffer/RT was >500 mg/mL and HPLC purity was measured to be 99.4. The solubility by HPLC of KX2-391.MSA, Form A in DI H2O/RT was >500 mg/mL and HPLC purity was measured to be 99.4.

[2] = Humidity chamber hygroscopicity study (salt solution chambers, visual inspection); format: physicochemical; conditions: ambient temperature
Method: Further characterization of the hygroscopicity of the mesylate salt was performed using several humidity chambers to cover a range of humidity from 75, 88 to 95% RH. The 75, 88, and 95% RH chambers were prepared with NaCl, BaCl2.2H2O, and Na2HPO4.12 H2O respectively and were equilibrated for 48 hours prior to introducing the samples. Samples were placed into aluminum pans and monitored by visual inspection for up to five days. Table 3 summarizes the observations at 0, 3, 5, 24, 48, 72, 96 and 120 hour time points.
Moisture sorption studies conducted at ambient temperature utilizing salt solution humidity chambers were conducted to evaluate solid stability by visual inspection.

[3] = as above; format: physicochemical; conditions: ambient temperature
[4] = Moisture-sorption analysis (Hiden IGAsorp); format: physicochemical; conditions: 25° C.
Method: Moisture-sorption experiments were performed using a Hiden IGAsorp Moisture Sorption instrument on KX2-391.MSA obtained in accordance with the process of the present invention (Example 4). First, the sample was dried at 0% Relative Humidity (RH) and 25° C. until an equilibrium weight was reached or for a maximum of four hours. The sample was then subjected to an isothermal (25° C.) adsorption scan from 10 to 90% RH in steps of 10%. The sample was allowed to equilibrate to an asymptotic weight at each point for a maximum of four hours. Following adsorption, a desorption scan from 85 to 0% RH (at 25° C.) was run in steps of −10% again allowing a maximum of four hours for equilibration to an asymptotic weight. The sample was then dried for one hour at 80° C. and the resulting solid analyzed by XRPD. […] FIG. 10 depicts percent change of water content as a function of relative humidity for KX2-391.MSA, Form A.
Moisture-sorption experiments were performed using a Hiden IGAsorp Moisture Sorption Instrument on KX2-391.2HCl obtained in accordance with the process of the present invention (Example 3). First, the sample was dried at 0% Relative Humidity (RH) and 25° C. until an equilibrium weight was reached or for a maximum of four hours. The sample was then subjected to an isothermal (25° C.) adsorption scan from 10 to 90% RH in steps of 10%. The sample was allowed to equilibrate to an asymptotic weight at each point for a maximum of four hours. Following adsorption, a desorption scan from 85 to 0% RH (at 25° C.) was run in steps of −10% again allowing a maximum of four hours for equilibration to an asymptotic weight. The sample was then dried for one hour at 80° C. and the resulting solid analyzed by XRPD.

Src protein substrates [5] = experiment: Src substrate phosphorylation in c-Src transformed NIH3T3 cells; format: cell-based; conditions: c-Src (527F, constitutively active and transforming) transformed NIH3T3 cells
Excerpt: (§1) Compounds of the invention or salts thereof may be Src signaling inhibitors that bind in the Src peptide substrate site. The activity of various compounds of the invention and salts has been studied in c-Src ([…], constitutively active and transforming) transformed NIH3T3 cells and in human colon cancer cells (HT29).

Src protein substrates [6] = experiment: Src substrate phosphorylation in human colon cancer cells (HT29); format: cell-based
Excerpt: as §1

[7] = % RH 90.0102, end of adsorption
[8] = % RH 90.0102, start of desorption
[9] = % RH −0.0430, end of desorption
[10] = % RH −0.0500, start of adsorption scan

Question: With `Cl.Cl.O=C(Cc1ccc(-c2ccc(OCCN3CCOCC3)cc2)cn1)NCc1ccccc1` [KX2-391.2HCl, 2-(5-(4-(2-morpholinoethoxy)phenyl)pyridine-2-yl)-N-benzylacetamide dihydrochloride] as the molecule, how does the “pH of solubility sample” value [1] read?
Answer: The value was 2.1.

Question: What about the “pH of solubility sample” value ([1]; pH 2) of the same molecule?
Answer: Its value is “(1.9)”.

Question: And the solubility ([1]; pH 2, aqueous buffer)?
Answer: The solubility was greater than 500 mg/mL.

Question: What about the solubility ([1]; pH 6.9, water) of the same molecule?
Answer: The solubility was greater than 500 mg/mL.

Question: And the Time to deliquescence ([2]; 42% RH)?
Answer: Its Time to deliquescence is less than 3 h.

Question: What about the “Results (visual inspection)” value ([2]; 42% RH, dihydrochloride) of the same molecule?
Answer: Its value is “deliquescence was observed within three hours”.

Question: And the Time to deliquescence ([2]; 51% RH, dihydrochloride)?
Answer: Its Time to deliquescence is no more than 12 h.

Question: And the Time to deliquescence ([2]; 51% RH, listed as KX2-391•2HCl, dihydrochloride)?
Answer: The Time to deliquescence was less than 12 h.

Question: And the “Results (visual inspection)” value ([2]; 95% RH)?
Answer: Its value is “Deliquescence”.

Question: What about the Time to deliquescence ([2]; 95% RH, dihydrochloride) of the same molecule?
Answer: Its Time to deliquescence is no more than 12 h.

Question: And the Time to deliquescence ([2]; 95% RH, listed as KX2-391•2HCl, dihydrochloride)?
Answer: The Time to deliquescence was less than 12 h.

Question: And the “deliquescence humidity at ambient temperature” value [2]?
Answer: Its value is 32-42 % RH.

Question: And the “Results (visual inspection)” value ([3]; 32% RH, 7 days, dihydrochloride)?
Answer: The value was “remain stable”.

Question: What about the “Results (visual inspection)” value ([3]; 32% RH, 7 days, listed as KX2-391•2HCl, dihydrochloride) of the same molecule?
Answer: The value was “Solid”.

Question: What about the “Results (visual inspection)” value ([3]; 42% RH, dihydrochloride) of the same molecule?
Answer: Its value is “Deliquescence”.

Question: What about the “Results (visual inspection)” value ([3]; 51% RH) of the same molecule?
Answer: Its value is “Deliquescence”.

Question: And the “inflection point of moisture sorption (suggesting deliquescence)” value [4]?
Answer: The value was 40-50 % RH.

Question: And the “hygroscopicity by moisture sorption analysis” value ([4]; adsorption scan 10 to 90% RH)?
Answer: Its value is “significantly hygroscopic”.

Question: And the “water absorbed at 60% RH” value ([4]; 60% RH)?
Answer: Its value is 16.7 wt %.

Question: And the “Moisture Sorption Wt % Water @ 90% RH” value [4]?
Answer: Its value is 27.0 wt %.

Question: And the “Mole ration (water:sample)” value ([4]; % RH 4.9957, desorption)?
Answer: The value was 1.3860.

Question: What about the Wt % water ([4]; % RH 4.9957, desorption) of the same molecule?
Answer: The Wt % water was 4.7176 Wt %.

Question: And the “Mole ration (water:sample)” value ([4]; % RH 10.0011, adsorption)?
Answer: Its value is 2.0998.

Question: And the Wt % water ([4]; % RH 10.0011, adsorption)?
Answer: The Wt % water was 6.9776 Wt %.

Question: What about the “Mole ration (water:sample)” value ([4]; % RH 15.0035, desorption) of the same molecule?
Answer: The value was 2.0512.

Question: What about the Wt % water ([4]; % RH 15.0035, desorption) of the same molecule?
Answer: Its Wt % water is 6.8271 Wt %.

Question: And the “Mole ration (water:sample)” value ([4]; % RH 20.0071, adsorption)?
Answer: Its value is 2.4810.

Question: What about the Wt % water ([4]; % RH 20.0071, adsorption) of the same molecule?
Answer: Its Wt % water is 8.1412 Wt %.

Question: What about the “Mole ration (water:sample)” value ([4]; % RH 25.0029, desorption) of the same molecule?
Answer: Its value is 4.0655.

Question: And the Wt % water ([4]; % RH 25.0029, desorption)?
Answer: The Wt % water was 12.6812 Wt %.

Question: What about the “Mole ration (water:sample)” value ([4]; % RH 29.9953, adsorption) of the same molecule?
Answer: Its value is 2.7855.

Question: What about the Wt % water ([4]; % RH 29.9953, adsorption) of the same molecule?
Answer: Its Wt % water is 9.0498 Wt %.

Question: What about the “Mole ration (water:sample)” value ([4]; % RH 35.0089, desorption) of the same molecule?
Answer: Its value is 4.3683.

Question: What about the Wt % water ([4]; % RH 35.0089, desorption) of the same molecule?
Answer: The Wt % water was 13.4981 Wt %.

Question: What about the “Mole ration (water:sample)” value ([4]; % RH 39.9936, adsorption) of the same molecule?
Answer: The value was 3.1317.

Question: And the Wt % water ([4]; % RH 39.9936, adsorption)?
Answer: The Wt % water was 10.0615 Wt %.

Question: What about the “Mole ration (water:sample)” value ([4]; % RH 45.0063, desorption) of the same molecule?
Answer: Its value is 4.6309.

Question: And the Wt % water ([4]; % RH 45.0063, desorption)?
Answer: The Wt % water was 14.1945 Wt %.

Question: And the “Mole ration (water:sample)” value ([4]; % RH 50.0083, adsorption)?
Answer: Its value is 4.7853.

Question: What about the Wt % water ([4]; % RH 50.0083, adsorption) of the same molecule?
Answer: Its Wt % water is 14.5986 Wt %.

Question: What about the “Mole ration (water:sample)” value ([4]; % RH 54.9876, desorption) of the same molecule?
Answer: Its value is 4.8578.

Question: What about the Wt % water ([4]; % RH 54.9876, desorption) of the same molecule?
Answer: The Wt % water was 14.7870 Wt %.

Question: And the “Mole ration (water:sample)” value ([4]; % RH 59.9940, adsorption)?
Answer: Its value is 5.6228.

Question: What about the Wt % water ([4]; % RH 59.9940, adsorption) of the same molecule?
Answer: Its Wt % water is 16.7261 Wt %.

Question: And the “Mole ration (water:sample)” value ([4]; % RH 64.9989, desorption)?
Answer: The value was 5.0957.

Question: And the Wt % water ([4]; % RH 64.9989, desorption)?
Answer: Its Wt % water is 15.3997 Wt %.

Question: What about the “Mole ration (water:sample)” value ([4]; % RH 70.0044, adsorption) of the same molecule?
Answer: Its value is 6.6487.

Question: And the Wt % water ([4]; % RH 70.0044, adsorption)?
Answer: The Wt % water was 19.1922 Wt %.

Question: And the “Mole ration (water:sample)” value ([4]; % RH 75.0016, desorption)?
Answer: Its value is 5.5767.

Question: And the Wt % water ([4]; % RH 75.0016, desorption)?
Answer: Its Wt % water is 16.6119 Wt %.

Question: And the “Mole ration (water:sample)” value ([4]; % RH 80.0002, adsorption)?
Answer: Its value is 7.4350.

Question: What about the Wt % water ([4]; % RH 80.0002, adsorption) of the same molecule?
Answer: The Wt % water was 20.9856 Wt %.

Question: What about the “Mole ration (water:sample)” value ([4]; % RH 84.9979, desorption) of the same molecule?
Answer: Its value is 8.3910.

Question: And the Wt % water ([4]; % RH 84.9979, desorption)?
Answer: The Wt % water was 23.0617 Wt %.

Question: And the “Mole ration (water:sample)” value [4, 7]?
Answer: Its value is 10.3345.

Question: And the Wt % water [4, 7]?
Answer: The Wt % water was 26.9630 Wt %.

Question: And the “Mole ration (water:sample)” value [4, 8]?
Answer: Its value is 10.3345.

Question: What about the Wt % water [4, 8] of the same molecule?
Answer: The Wt % water was 26.9630 Wt %.

Question: What about the “Mole ration (water:sample)” value [4, 9] of the same molecule?
Answer: The value was 0.3038.

Question: What about the Wt % water [4, 9] of the same molecule?
Answer: The Wt % water was 1.0737 Wt %.

Question: What about the “Mole ration (water:sample)” value [4, 10] of the same molecule?
Answer: The value was 1.7493.

Question: And the Wt % water [4, 10]?
Answer: The Wt % water was 5.8814 Wt %.

Question: With `O=C(Cc1ccc(-c2ccc(OCCN3CCOCC3)cc2)cn1)NCc1ccccc1` [KX2-391, 2-(5-(4-(2-morpholinoethoxy)phenyl)pyridin-2-yl)-N-benzylacetamide] as the molecule, how does the “phosphorylation level of known Src protein substrates” value (Src protein substrates [5]) read?
Answer: Its value is “reduce the phosphorylation level of known Src protein substrates in a dose-dependent fashion”.

Question: And the “phosphorylation level of known Src protein substrates” value (Src protein substrates [6])?
Answer: Its value is “reduce the phosphorylation level of known Src protein substrates in a dose-dependent fashion”.

Question: What about the “Moisture Sorption Wt % Water @ 90% RH” value ([4]; listed as Free base) of the same molecule?
Answer: The value was 3.7 wt %.
